These compounds were tested against human ACC2 (Homo sapiens (Human), UniProt O00763) (assay: ACC2 assay (spectrophotometric 384 well assay, NADH-linked kinetic method)). Settings: hACC2 construct lacking the 128 N-terminal amino acids; 25° C., 340 nm over 15 minutes.
Format: biochemical
Method: Spectrophotometric 384 Well Assay
Malonyl CoA formation by acetyl CoA carboxylases is stoichometrically linked to the consumption of ATP. ACC2 activity is measured in a NADH-linked kinetic method measuring ADP generated during the ACC reaction using a coupled lactate dehydrogenase/pyruvate kinase reaction.
The protein is then expressed in insect cells using a baculoviral expression system. Protein purification is performed by anion exchange.
All compounds are dissolved in dimethyl sulfoxide (DMSO) to a concentration of 10 mM.
The enzymatic reaction is then started by addition of a mixture of NADH, acetyl
Coenzyme A (both […].) and ATP (500 uM f.c.). The decrease of the optical density (slope S) is then determined at 25° C. at a wavelength of 340 nm over 15 minutes in a spectrophotometric reader.
Each assay microtiter plate contains wells with vehicle instead of compound as controls for the non-inhibited enzyme (100% CTL; ‘HIGH’) and wells without acetyl-CoA as controls for non-specific NADH degradation (0% CTL; ‘LOW’).

Chain of human ACC2 (O00763 129-2458): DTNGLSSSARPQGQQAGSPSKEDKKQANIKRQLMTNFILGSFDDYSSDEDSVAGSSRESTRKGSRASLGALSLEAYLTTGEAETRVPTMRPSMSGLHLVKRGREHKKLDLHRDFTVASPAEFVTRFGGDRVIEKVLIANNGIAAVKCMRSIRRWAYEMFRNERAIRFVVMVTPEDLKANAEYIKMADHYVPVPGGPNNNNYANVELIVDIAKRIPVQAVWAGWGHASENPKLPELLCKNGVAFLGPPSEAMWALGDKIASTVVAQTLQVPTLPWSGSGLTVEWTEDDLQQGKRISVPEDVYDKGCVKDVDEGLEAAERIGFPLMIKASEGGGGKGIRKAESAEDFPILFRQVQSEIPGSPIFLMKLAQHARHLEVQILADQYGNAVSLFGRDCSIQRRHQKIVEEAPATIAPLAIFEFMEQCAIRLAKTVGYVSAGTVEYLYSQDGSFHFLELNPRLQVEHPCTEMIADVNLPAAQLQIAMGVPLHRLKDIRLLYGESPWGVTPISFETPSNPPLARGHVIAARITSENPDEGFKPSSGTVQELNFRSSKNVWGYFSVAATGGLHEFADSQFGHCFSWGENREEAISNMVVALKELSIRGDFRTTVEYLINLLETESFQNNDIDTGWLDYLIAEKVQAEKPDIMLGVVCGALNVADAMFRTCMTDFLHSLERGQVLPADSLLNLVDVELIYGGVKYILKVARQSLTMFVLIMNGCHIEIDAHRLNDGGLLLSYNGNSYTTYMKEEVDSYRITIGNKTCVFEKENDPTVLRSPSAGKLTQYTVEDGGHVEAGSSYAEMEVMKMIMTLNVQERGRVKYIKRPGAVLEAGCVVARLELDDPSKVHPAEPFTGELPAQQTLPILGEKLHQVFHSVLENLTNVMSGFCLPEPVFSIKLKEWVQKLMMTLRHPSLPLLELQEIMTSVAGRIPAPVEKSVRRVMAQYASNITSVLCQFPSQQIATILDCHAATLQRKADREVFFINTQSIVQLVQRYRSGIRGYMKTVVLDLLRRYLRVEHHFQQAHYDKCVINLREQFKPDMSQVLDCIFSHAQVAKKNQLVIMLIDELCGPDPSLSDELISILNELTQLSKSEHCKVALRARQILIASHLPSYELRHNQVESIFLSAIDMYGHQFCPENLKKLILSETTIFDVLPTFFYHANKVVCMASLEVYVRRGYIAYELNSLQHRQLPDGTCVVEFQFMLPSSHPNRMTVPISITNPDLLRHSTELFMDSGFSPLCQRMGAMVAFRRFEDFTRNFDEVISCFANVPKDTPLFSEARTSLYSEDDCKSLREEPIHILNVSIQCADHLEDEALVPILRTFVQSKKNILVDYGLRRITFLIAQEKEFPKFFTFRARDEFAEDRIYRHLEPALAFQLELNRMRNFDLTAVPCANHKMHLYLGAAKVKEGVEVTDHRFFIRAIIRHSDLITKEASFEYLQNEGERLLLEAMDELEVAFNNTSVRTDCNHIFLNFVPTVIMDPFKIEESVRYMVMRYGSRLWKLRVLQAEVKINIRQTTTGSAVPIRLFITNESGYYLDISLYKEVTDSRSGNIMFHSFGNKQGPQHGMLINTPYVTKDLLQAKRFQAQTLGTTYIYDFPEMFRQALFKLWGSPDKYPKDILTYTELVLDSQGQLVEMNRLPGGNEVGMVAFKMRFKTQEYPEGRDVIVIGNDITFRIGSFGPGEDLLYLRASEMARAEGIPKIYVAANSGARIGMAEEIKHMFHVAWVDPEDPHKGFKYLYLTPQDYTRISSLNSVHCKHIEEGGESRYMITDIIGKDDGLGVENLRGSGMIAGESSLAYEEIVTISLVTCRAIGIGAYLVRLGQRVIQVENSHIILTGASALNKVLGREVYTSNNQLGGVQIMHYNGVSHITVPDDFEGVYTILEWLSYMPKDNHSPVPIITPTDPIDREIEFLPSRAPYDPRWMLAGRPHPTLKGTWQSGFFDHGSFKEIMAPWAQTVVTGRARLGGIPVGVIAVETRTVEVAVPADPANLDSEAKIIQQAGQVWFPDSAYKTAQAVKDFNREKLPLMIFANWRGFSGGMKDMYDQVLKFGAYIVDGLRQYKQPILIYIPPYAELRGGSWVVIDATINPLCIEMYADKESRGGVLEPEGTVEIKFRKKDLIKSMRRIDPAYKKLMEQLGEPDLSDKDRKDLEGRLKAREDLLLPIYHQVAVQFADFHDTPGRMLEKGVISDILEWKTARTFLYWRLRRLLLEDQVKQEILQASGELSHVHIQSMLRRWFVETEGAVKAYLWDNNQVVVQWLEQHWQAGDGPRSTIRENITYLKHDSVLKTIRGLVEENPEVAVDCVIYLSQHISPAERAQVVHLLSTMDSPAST

SMILES	IC50 [nM]
CC(C(=O)NC1CC1C)c1ccc(O[C@@H]2CCN(c3nc(N(C)C)ncc3F)C2)cc1 (single isomer, unassigned) [6.2 isomer 1]	86
CC(C(=O)NC1CC1C)c1ccc(O[C@@H]2CCN(c3nc(N(C)C)ncc3F)C2)cc1 (single isomer, unassigned) [6.2 isomer 2]	177
CC(C(=O)NC1CC1C)c1ccc(O[C@@H]2CCN(c3nc(N(C)C)ncc3F)C2)cc1 (single isomer, unassigned) [6.2 isomer 3]	219
CC(C(=O)NC1CC1C)c1ccc(O[C@@H]2CCN(c3nc(N(C)C)ncc3F)C2)cc1 (single isomer, unassigned) [6.2 isomer 4]	1480
CCNC(=O)C(C)c1ccc(O[C@@H]2CCN(c3ncnc(OCC(C)(C)O)c3Cl)C2)cc1 (single isomer, unassigned) [6.3 isomer 1]	95
CCNC(=O)C(C)c1ccc(O[C@@H]2CCN(c3ncnc(OCC(C)(C)O)c3Cl)C2)cc1 (single isomer, unassigned) [6.3 isomer 2]	1100
CC(C(=O)NC1CC1C)c1ccc(O[C@@H]2CCN(c3ncnc(OCC(C)(C)O)c3Cl)C2)cc1 (single isomer, unassigned) [6.4 isomer 1]	121
CC(C(=O)NC1CC1C)c1ccc(O[C@@H]2CCN(c3ncnc(OCC(C)(C)O)c3Cl)C2)cc1 (single isomer, unassigned) [6.4 isomer 2]	681
CC(C(=O)NC1CC1C)c1ccc(O[C@@H]2CCN(c3ncnc(OCC(C)(C)O)c3Cl)C2)cc1 (single isomer, unassigned) [6.4 isomer 3]	127
CC(C(=O)NCC(F)F)c1ccc(O[C@@H]2CCN(c3ncnc(OCC(C)(C)O)c3Cl)C2)cc1 (single isomer, unassigned) [6.5 isomer 1]	135
CC(C(=O)NCC(F)F)c1ccc(O[C@@H]2CCN(c3ncnc(OCC(C)(C)O)c3Cl)C2)cc1 (single isomer, unassigned) [6.5 isomer 2]	872
CCNC(=O)C(C)c1ccc(O[C@@H]2CCN(c3nc(N(C)C)ncc3F)C2)cc1 (single isomer, unassigned) [6.6 isomer 1]	126
CCCNc1nccc(N2CC[C@@H](Oc3ccc(C(C)C(=O)NC4CC4C)cc3)C2)c1F (single isomer, unassigned) [Example 1.3]	101
CCCNc1nccc(N2CC[C@@H](Oc3ccc(C(C)C(=O)NC4CC4C)cc3)C2)c1F (single isomer, unassigned) [Example 1.4]	118
CCCNc1nccc(N2CC[C@@H](Oc3ccc(C(C)C(=O)NC4CC4)cc3)C2)c1F (some centres unmarked) [Example 1.2]	61
CC(C(=O)NC1CC1)c1ccc(O[C@@H]2CCN(c3ncnc(OCC(C)(F)F)c3F)C2)cc1 (some centres unmarked) [Example 1.5]	133
CC(C(=O)NC1CC1)c1ccc(O[C@@H]2CCN(c3nc(N(C)C)ncc3F)C2)cc1 (some centres unmarked) [Example 1.7]	170
CC(C(=O)NC1CC1)c1ccc(O[C@@H]2CCN(c3ccc(OCC4CC4(F)F)cn3)C2)cc1 (some centres unmarked) [Example 1.8]	179
CC(C(=O)NC1CC1C)c1ccc(O[C@@H]2CCN(c3nc(N(C)C)ncc3F)C2)cc1 (some centres unmarked) [Example 1.9]	195
CC(C(=O)NC1CC1C)c1ccc(O[C@@H]2CCN(c3ccc(OCC4CC4(F)F)cn3)C2)cc1 (some centres unmarked) [Example 1.10]	205
CCCNc1nccc(N2CC[C@@H](Oc3ccc(C(C)C(=O)NCC)cc3)C2)c1F (some centres unmarked) [Example 1.11]	213
CC(C(=O)NC1CC1C)c1ccc(O[C@@H]2CCN(c3ccc(OCC4CC4(F)F)cn3)C2)cc1 (some centres unmarked) [Example 1.12]	220

SMILES	IC50 [nM]
CC(C(=O)NC1CC1C)c1ccc(O[C@@H]2CCN(c3ncnc(OCC(C)(C)O)c3Cl)C2)cc1 (some centres unmarked) [Example 1.13]	233
CC(C(=O)NC1CC1C)c1ccc(O[C@@H]2CCN(c3ncnc(OCC(C)(F)F)c3F)C2)cc1 (some centres unmarked) [Example 1.14]	244
CC(C(=O)NCC(F)F)c1ccc(O[C@@H]2CCN(c3ccc(OCC4CC4(F)F)cn3)C2)cc1 (some centres unmarked) [Example 1.15]	263
C#CCNC(=O)C(C)c1ccc(O[C@@H]2CCN(c3ccnc(NCCC)c3F)C2)cc1 (some centres unmarked) [Example 1.16]	266
CCNC(=O)C(C)c1ccc(O[C@@H]2CCN(c3ncnc(OCC(C)(C)O)c3Cl)C2)cc1 (some centres unmarked) [Example 1.17]	272
C=C(C)CNC(=O)C(C)c1ccc(O[C@@H]2CCN(c3ccnc(NCCC)c3F)C2)cc1 (some centres unmarked) [Example 1.18]	286
CCCNc1nccc(N2CC[C@@H](Oc3ccc(C(C)C(=O)NCCF)cc3)C2)c1F (some centres unmarked) [Example 1.19]	296
C#CCNC(=O)C(C)c1ccc(O[C@@H]2CCN(c3ncnc(OCC(C)(C)O)c3Cl)C2)cc1 (some centres unmarked) [Example 1.20]	306
CCCNc1nccc(N2CC[C@@H](Oc3ccc(C(C)C(=O)NCC(F)F)cc3)C2)c1F (some centres unmarked) [Example 1.21]	309
CC(C(=O)NC1CC1C)c1ccc(O[C@@H]2CCN(c3ncnc(OCC(C)(F)F)c3F)C2)cc1 (some centres unmarked) [Example 1.22]	311
C=C(C)CNC(=O)C(C)c1ccc(O[C@@H]2CCN(c3ncnc(OCC(C)(C)O)c3Cl)C2)cc1 (some centres unmarked) [Example 1.23]	315
CCCNc1nccc(N2CC[C@@H](Oc3ccc(C(C)C(=O)NC(C)C)cc3)C2)c1F (some centres unmarked) [Example 1.24]	319
C=CCNC(=O)C(C)c1ccc(O[C@@H]2CCN(c3ncnc(OCC(C)(C)O)c3Cl)C2)cc1 (some centres unmarked) [Example 1.25]	322
CC(C(=O)NC1CC1C)c1ccc(O[C@@H]2CCN(c3ncnc(OCC(C)(C)O)c3Cl)C2)cc1 (some centres unmarked) [Example 1.26]	325
CCNC(=O)C(C)c1ccc(O[C@@H]2CCN(c3nc(N(C)C)ncc3F)C2)cc1 (some centres unmarked) [Example 1.27]	345
CNC(=O)C(C)c1ccc(O[C@@H]2CCN(c3ccc(OCC4CC4(F)F)cn3)C2)cc1 (some centres unmarked) [Example 1.28]	346
CCCNc1nccc(N2CC[C@@H](Oc3ccc(C(C)C(=O)N[C@H](C)CC)cc3)C2)c1F (some centres unmarked) [Example 1.29]	367
CCNC(=O)C(C)c1ccc(O[C@@H]2CCN(c3ncnc(OCC(C)(F)F)c3F)C2)cc1 (some centres unmarked) [Example 1.30]	378
C=CCNC(=O)C(C)c1ccc(O[C@@H]2CCN(c3ccc(OCC4CC4(F)F)cn3)C2)cc1 (some centres unmarked) [Example 1.31]	381
CCCNC(=O)C(C)c1ccc(O[C@@H]2CCN(c3ccnc(NCCC)c3F)C2)cc1 (some centres unmarked) [Example 1.32]	402
CCCNc1nccc(N2CC[C@@H](Oc3ccc(C(C)C(=O)Nc4cccnc4)cc3)C2)c1F (some centres unmarked) [Example 1.35]	410
CC(C(=O)NCC(F)F)c1ccc(O[C@@H]2CCN(c3ncnc(OCC(C)(C)O)c3Cl)C2)cc1 (some centres unmarked) [Example 1.36]	413

SMILES	IC50 [nM]
C=C(C)CNC(=O)C(C)c1ccc(O[C@@H]2CCN(c3ccc(OCC4CC4(F)F)cn3)C2)cc1 (some centres unmarked) [Example 1.37]	418
CCCNC(=O)C(C)c1ccc(O[C@@H]2CCN(c3ncnc(OCC(C)(C)O)c3Cl)C2)cc1 (some centres unmarked) [Example 1.40]	437
CCCNc1nccc(N2CC[C@@H](Oc3ccc(C(C)C(=O)NC4CCC4)cc3)C2)c1F (some centres unmarked) [Example 1.41]	438
C#CCNC(=O)C(C)c1ccc(O[C@@H]2CCN(c3ncnc(OCC(C)(F)F)c3F)C2)cc1 (some centres unmarked) [Example 1.42]	441
CC(C(=O)NCC(F)F)c1ccc(O[C@@H]2CCN(c3nc(N(C)C)ncc3F)C2)cc1 (some centres unmarked) [Example 1.43]	443
C=C(C)CNC(=O)C(C)c1ccc(O[C@@H]2CCN(c3nc(N(C)C)ncc3F)C2)cc1 (some centres unmarked) [Example 1.44]	454
C=CCNC(=O)C(C)c1ccc(O[C@@H]2CCN(c3ncnc(OCC(C)(F)F)c3F)C2)cc1 (some centres unmarked) [Example 1.45]	463
CC(C(=O)NCC(F)F)c1ccc(O[C@@H]2CCN(c3ncnc(OCC(C)(F)F)c3F)C2)cc1 (some centres unmarked) [Example 1.46]	470
CC[C@@H](C)NC(=O)C(C)c1ccc(O[C@@H]2CCN(c3ncnc(OCC(C)(C)O)c3Cl)C2)cc1 (some centres unmarked) [Example 1.47]	472
CC(C(=O)Nc1cccnc1)c1ccc(O[C@@H]2CCN(c3ncnc(OCC(C)(F)F)c3F)C2)cc1 (some centres unmarked) [Example 1.48]	480
CC(C)NC(=O)C(C)c1ccc(O[C@@H]2CCN(c3ncnc(OCC(C)(C)O)c3Cl)C2)cc1 (some centres unmarked) [Example 1.49]	492
CC(C(=O)NC1CCC1)c1ccc(O[C@@H]2CCN(c3ncnc(OCC(C)(C)O)c3Cl)C2)cc1 (some centres unmarked) [Example 1.50]	501
CC(C(=O)NCCF)c1ccc(O[C@@H]2CCN(c3nc(N(C)C)ncc3F)C2)cc1 (some centres unmarked) [Example 1.51]	512
CCCNC(=O)C(C)c1ccc(O[C@@H]2CCN(c3ccc(OCC4CC4(F)F)cn3)C2)cc1 (some centres unmarked) [Example 1.52]	533
C=C(C)CNC(=O)C(C)c1ccc(O[C@@H]2CCN(c3ncnc(OCC(C)(F)F)c3F)C2)cc1 (some centres unmarked) [Example 1.53]	538
CC(C(=O)NCCF)c1ccc(O[C@@H]2CCN(c3ncnc(OCC(C)(C)O)c3Cl)C2)cc1 (some centres unmarked) [Example 1.54]	547
CC(C(=O)NCCF)c1ccc(O[C@@H]2CCN(c3ncnc(OCC(C)(F)F)c3F)C2)cc1 (some centres unmarked) [Example 1.55]	573
CNC(=O)C(C)c1ccc(O[C@@H]2CCN(c3nc(N(C)C)ncc3F)C2)cc1 (some centres unmarked) [Example 1.56]	579
CC(C(=O)N[C@H](C)CO)c1ccc(O[C@@H]2CCN(c3ccc(OCC4CC4(F)F)cn3)C2)cc1 (some centres unmarked) [Example 1.57]	591
CC[C@@H](C)NC(=O)C(C)c1ccc(O[C@@H]2CCN(c3ccc(OCC4CC4(F)F)cn3)C2)cc1 (some centres unmarked) [Example 1.58]	598
CC[C@@H](C)NC(=O)C(C)c1ccc(O[C@@H]2CCN(c3ncnc(OCC(C)(F)F)c3F)C2)cc1 (some centres unmarked) [Example 1.59]	603
